Reference: ChEMBL document CHEMBL3526047, “Excretion, metabolism, and pharmacokinetics of 1-(8-(2-chlorophenyl)-9-(4-chlorophenyl)-9H-purin-6-yl)-4-(ethylamino)piperidine-4-carboxamide, a selective cannabinoid receptor antagonist, in healthy male volunteers” (Drug Metab Dispos, 2012)
Values belong to the compound of their own block, whether it stands above or below them.

What was measured:
Cytochrome P450 2C9 = Cytochrome P450 2C9 (Homo sapiens, UniProt P11712); assay: Drug metabolism assessed as human recombinant CYP2C9-mediated metabolite formation at 10 uM after 60 mins by HPLC method; assay type: ADME; settings: recombinant enzyme, 1 h
Serum [1] = assay: Drug level in healthy obese adult male human serum at 25 mg, po administered as single dose after 4 hrs by HPLC method; assay type: ADME, organism-based; settings: in vivo
Cytochrome P450 2C8 = target: T1, Cytochrome P450 2C8 (Homo sapiens, UniProt P10632); assay: Drug metabolism assessed as human recombinant CYP2C8-mediated metabolite formation at 10 uM after 60 mins by HPLC method; assay type: ADME; settings: recombinant enzyme, 1 h
T1 sequence (P10632 whole entry): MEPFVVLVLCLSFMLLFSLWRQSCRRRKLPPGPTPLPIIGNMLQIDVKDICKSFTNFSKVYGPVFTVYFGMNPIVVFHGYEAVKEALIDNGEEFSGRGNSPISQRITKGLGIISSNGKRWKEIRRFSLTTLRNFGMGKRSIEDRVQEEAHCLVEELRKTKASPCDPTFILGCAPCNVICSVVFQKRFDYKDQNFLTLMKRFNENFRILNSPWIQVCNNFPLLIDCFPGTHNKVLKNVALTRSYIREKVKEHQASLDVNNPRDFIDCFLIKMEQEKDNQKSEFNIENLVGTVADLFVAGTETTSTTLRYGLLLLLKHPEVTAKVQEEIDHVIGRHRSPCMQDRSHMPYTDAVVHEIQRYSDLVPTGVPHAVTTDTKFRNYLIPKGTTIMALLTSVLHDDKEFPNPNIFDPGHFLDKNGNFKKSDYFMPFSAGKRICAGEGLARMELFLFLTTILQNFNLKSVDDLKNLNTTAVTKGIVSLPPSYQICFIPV

Mus musculus = organism: Mus musculus; assay: Drug recovery in mouse; assay type: ADME, organism-based; settings: in vivo
Serum [2] = assay: Drug level in healthy obese adult male human serum at 25 mg, po administered as single dose after 48 hrs by HPLC method; assay type: ADME, organism-based; settings: in vivo
Homo sapiens [3] = assay: Tmax in healthy obese adult male human assessed as total radioactivity at 25 mg, po administered as single dose; assay type: ADME, organism-based; settings: in vivo
Cytochrome P450 2D6 = Cytochrome P450 2D6 (Homo sapiens, UniProt P10635); assay: Drug metabolism assessed as human recombinant CYP2D6-mediated metabolite formation at 10 uM after 60 mins by HPLC method; assay type: ADME; settings: recombinant enzyme, 1 h
Serum [4] = assay: Total drug level in healthy obese adult male human serum at 25 mg, po administered as single dose after 48 hrs by HPLC method; assay type: ADME, organism-based; settings: in vivo
Rattus norvegicus = organism: Rattus norvegicus; assay: Drug recovery in rat; assay type: ADME, organism-based; settings: in vivo
Serum [5] = assay: AUC in healthy obese adult male human serum at 25 mg, po administered as single dose after 48 hrs by HPLC method; assay type: ADME, organism-based, Plasma; set-up: time < 48 hr, dose 25 mg, route oral; settings: in vivo
Homo sapiens [6] = assay: AUC (0 to last) in healthy obese adult male human assessed as total radioactivity at 25 mg, po administered as single dose; assay type: ADME, organism-based, Plasma; settings: in vivo
Homo sapiens [7] = assay: Cmax in healthy obese adult male human assessed as total radioactivity at 25 mg, po administered as single dose; assay type: ADME, organism-based; set-up: dose 25 mg, route oral; settings: in vivo
Cytochrome P450 1A2 = target: T2, Cytochrome P450 1A2 (Homo sapiens, UniProt P05177); assay: Drug metabolism assessed as human recombinant CYP1A2-mediated metabolite formation at 10 uM after 60 mins by HPLC method; assay type: ADME; settings: recombinant enzyme, 1 h
T2 sequence (P05177 whole entry): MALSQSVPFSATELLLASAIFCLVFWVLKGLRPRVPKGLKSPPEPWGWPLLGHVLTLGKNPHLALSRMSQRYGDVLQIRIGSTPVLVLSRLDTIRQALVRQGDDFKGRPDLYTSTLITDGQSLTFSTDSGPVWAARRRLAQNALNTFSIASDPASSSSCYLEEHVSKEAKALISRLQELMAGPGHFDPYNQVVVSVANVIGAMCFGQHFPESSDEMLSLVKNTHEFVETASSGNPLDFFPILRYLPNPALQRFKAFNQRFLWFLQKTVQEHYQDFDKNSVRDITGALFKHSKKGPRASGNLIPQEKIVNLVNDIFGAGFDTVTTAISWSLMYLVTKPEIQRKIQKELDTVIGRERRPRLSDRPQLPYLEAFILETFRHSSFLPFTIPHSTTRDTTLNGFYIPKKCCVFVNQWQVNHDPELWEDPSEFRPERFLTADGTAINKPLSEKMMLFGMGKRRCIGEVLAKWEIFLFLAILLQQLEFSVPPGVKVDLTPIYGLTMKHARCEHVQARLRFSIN

Cytochrome P450 2C19 = Cytochrome P450 2C19 (Homo sapiens, UniProt P33261); assay: Drug metabolism assessed as human recombinant CYP2C19-mediated metabolite formation at 10 uM after 60 mins by HPLC method; assay type: ADME; settings: recombinant enzyme, 1 h
Serum [8] = assay: Drug level in healthy obese adult male human serum at 25 mg, po administered as single dose after 24 hrs by HPLC method; assay type: ADME, organism-based; settings: in vivo
Homo sapiens [9] = assay: AUC (0 to infinity) in healthy obese adult male human assessed as total radioactivity at 25 mg, po administered as single dose; assay type: ADME, organism-based, Plasma; set-up: dose 25 mg, time infinity, route oral; settings: in vivo
Cytochrome P450 2E1 = Cytochrome P450 2E1 (Homo sapiens, UniProt P05181); assay: Drug metabolism assessed as human recombinant CYP2E1-mediated metabolite formation at 10 uM after 60 mins by HPLC method; assay type: ADME; settings: recombinant enzyme, 1 h
Cytochrome P450 1A1 = target: T3, Cytochrome P450 1A1 (Homo sapiens, UniProt P04798); assay: Drug metabolism assessed as human recombinant CYP1A1-mediated metabolite formation at 10 uM after 60 mins by HPLC method; assay type: ADME; settings: recombinant enzyme, 1 h
T3 sequence (P04798 whole entry): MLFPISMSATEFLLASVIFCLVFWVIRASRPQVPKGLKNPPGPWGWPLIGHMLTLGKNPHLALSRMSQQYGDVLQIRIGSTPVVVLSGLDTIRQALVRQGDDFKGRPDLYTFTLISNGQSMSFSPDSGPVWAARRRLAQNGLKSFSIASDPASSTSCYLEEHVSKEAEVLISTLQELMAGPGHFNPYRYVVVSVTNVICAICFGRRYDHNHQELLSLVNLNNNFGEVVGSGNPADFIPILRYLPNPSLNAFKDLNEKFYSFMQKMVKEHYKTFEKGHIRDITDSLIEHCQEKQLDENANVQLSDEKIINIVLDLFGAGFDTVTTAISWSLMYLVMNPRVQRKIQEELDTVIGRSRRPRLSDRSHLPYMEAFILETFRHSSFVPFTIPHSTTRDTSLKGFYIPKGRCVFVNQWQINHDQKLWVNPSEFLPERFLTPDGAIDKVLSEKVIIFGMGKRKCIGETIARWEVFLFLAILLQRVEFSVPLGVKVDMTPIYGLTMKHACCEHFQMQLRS

Homo sapiens [10] = assay: Terminal elimination half life in healthy obese adult male human assessed as total radioactivity at 25 mg, po administered as single dose; assay type: ADME, organism-based; settings: in vivo
Canis familiaris = organism: Canis familiaris; assay: Drug recovery in dog; assay type: ADME, organism-based, Canis lupus familiaris; settings: in vivo
Serum [11] = assay: Drug level in healthy obese adult male human serum at 25 mg, po administered as single dose after 12 hrs by HPLC method; assay type: ADME, organism-based; settings: in vivo
Serum [12] = assay: Drug level in serum of healthy obese adult male human treated with [14C]CP-945,598 at 25 mg, po administered as single dose after 24 hrs by HPLC method; assay type: ADME, organism-based; settings: in vivo
Serum [13] = assay: Drug level in serum of healthy obese adult male human treated with [14C]CP-945,598 at 25 mg, po administered as single dose after 48 hrs by HPLC method; assay type: ADME, organism-based; settings: in vivo
Serum [14] = assay: Drug level in serum of healthy obese adult male human treated with [14C]CP-945,598 at 25 mg, po administered as single dose after 4 hrs by HPLC method; assay type: ADME, organism-based; settings: in vivo
Serum [15] = assay: AUC in serum of healthy obese adult male human treated with [14C]CP-945,598 at 25 mg, po administered as single dose after 48 hrs by HPLC method; assay type: ADME, organism-based; set-up: time < 48 hr, dose 25 mg, route oral; settings: in vivo
Serum [16] = assay: Total drug level in serum of healthy obese adult male human treated with [14C]CP-945,598 at 25 mg, po administered as single dose after 48 hrs by HPLC method; assay type: ADME, organism-based; settings: in vivo
Serum [17] = assay: Drug level in serum of healthy obese adult male human treated with [14C]CP-945,598 at 25 mg, po administered as single dose after 12 hrs by HPLC method; assay type: ADME, organism-based; settings: in vivo
Cytochrome P450 3A4 = Cytochrome P450 3A4 (Homo sapiens, UniProt P08684); assay: Drug metabolism assessed as human recombinant CYP3A4-mediated metabolite formation after 60 mins by HPLC method; assay type: ADME; settings: recombinant enzyme, 1 h
Homo sapiens [18] = assay: Total drug excretion in healthy obese adult male human treated with [14C]CP-945,598 at 25 mg, po administered as single dose after 0 to 384 hrs hrs by HPLC method; assay type: ADME, organism-based; settings: in vivo
[19] = Drug excretion in feces of healthy obese adult male human treated with [14C]CP-945,598 at 25 mg, po administered as single dose after 0 to 384 hrs hrs by HPLC method; assay type: ADME, organism-based; settings: in vivo
Homo sapiens [20] = assay: Terminal elimination half life in healthy obese adult male human treated with [14C]CP-945,598 at 25 mg, po administered as single dose; assay type: ADME, organism-based; settings: in vivo
Homo sapiens [21] = assay: Cmax in healthy obese adult male human treated with [14C]CP-945,598 at 25 mg, po administered as single dose; assay type: ADME, organism-based; set-up: dose 25 mg, route oral; settings: in vivo
Homo sapiens [22] = assay: AUC (0 to infinity) in healthy obese adult male human treated with [14C]CP-945,598 at 25 mg, po administered as single dose; assay type: ADME, organism-based, Plasma; set-up: dose 25 mg, time infinity, route oral; settings: in vivo
Homo sapiens [23] = assay: Tmax in healthy obese adult male human treated with [14C]CP-945,598 at 25 mg, po administered as single dose; assay type: ADME, organism-based; settings: in vivo
Homo sapiens [24] = assay: AUC (0 to last) in healthy obese adult male human treated with [14C]CP-945,598 at 25 mg, po administered as single dose; assay type: ADME, organism-based, Plasma; set-up: dose 25 mg, route oral, time 0 - last; settings: in vivo
[25] = Drug excretion in urine of healthy obese adult male human treated with [14C]CP-945,598 at 25 mg, po administered as single dose after 0 to 384 hrs hrs by HPLC method; assay type: ADME, organism-based; settings: in vivo

Chain of Cytochrome P450 3A4 (P08684 whole entry): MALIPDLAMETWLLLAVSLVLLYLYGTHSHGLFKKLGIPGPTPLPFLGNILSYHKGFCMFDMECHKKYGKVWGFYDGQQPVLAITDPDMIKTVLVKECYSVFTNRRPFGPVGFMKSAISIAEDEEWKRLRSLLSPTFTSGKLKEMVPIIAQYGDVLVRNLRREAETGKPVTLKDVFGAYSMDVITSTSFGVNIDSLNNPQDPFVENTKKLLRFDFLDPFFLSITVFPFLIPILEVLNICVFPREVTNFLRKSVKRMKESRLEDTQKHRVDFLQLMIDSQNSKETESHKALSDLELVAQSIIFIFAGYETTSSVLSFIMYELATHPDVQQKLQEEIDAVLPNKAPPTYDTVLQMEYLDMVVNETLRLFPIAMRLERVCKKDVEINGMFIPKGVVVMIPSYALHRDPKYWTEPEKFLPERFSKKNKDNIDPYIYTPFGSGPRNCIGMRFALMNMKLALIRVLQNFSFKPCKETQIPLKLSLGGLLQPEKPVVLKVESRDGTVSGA
Chain of Cytochrome P450 2C19 (P33261 whole entry): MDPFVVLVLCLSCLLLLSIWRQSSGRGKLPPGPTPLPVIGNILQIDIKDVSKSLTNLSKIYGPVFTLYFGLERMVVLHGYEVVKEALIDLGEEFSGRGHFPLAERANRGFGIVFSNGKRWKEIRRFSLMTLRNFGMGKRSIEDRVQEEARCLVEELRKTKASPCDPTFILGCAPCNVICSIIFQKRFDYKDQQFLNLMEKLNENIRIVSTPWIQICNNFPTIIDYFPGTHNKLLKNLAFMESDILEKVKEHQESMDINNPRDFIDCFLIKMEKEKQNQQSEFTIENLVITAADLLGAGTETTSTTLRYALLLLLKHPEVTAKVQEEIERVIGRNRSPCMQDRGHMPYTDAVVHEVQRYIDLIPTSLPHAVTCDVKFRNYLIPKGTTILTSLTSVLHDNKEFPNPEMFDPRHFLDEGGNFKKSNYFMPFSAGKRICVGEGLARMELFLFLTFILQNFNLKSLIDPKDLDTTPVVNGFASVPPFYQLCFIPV
Chain of Cytochrome P450 2E1 (P05181 whole entry): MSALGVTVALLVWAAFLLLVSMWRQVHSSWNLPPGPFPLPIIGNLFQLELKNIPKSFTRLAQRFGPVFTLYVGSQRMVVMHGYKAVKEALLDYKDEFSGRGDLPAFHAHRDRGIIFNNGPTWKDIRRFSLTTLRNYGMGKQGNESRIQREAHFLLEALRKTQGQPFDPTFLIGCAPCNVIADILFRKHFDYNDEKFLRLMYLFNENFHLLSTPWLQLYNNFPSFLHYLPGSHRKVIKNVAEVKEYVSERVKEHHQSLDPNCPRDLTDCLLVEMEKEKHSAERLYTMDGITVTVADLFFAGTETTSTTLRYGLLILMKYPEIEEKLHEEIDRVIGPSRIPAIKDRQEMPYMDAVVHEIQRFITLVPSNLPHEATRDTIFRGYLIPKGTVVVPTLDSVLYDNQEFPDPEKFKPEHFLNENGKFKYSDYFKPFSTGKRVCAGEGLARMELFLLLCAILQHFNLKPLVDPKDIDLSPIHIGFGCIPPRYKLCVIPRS
Chain of Cytochrome P450 2C9 (P11712 whole entry): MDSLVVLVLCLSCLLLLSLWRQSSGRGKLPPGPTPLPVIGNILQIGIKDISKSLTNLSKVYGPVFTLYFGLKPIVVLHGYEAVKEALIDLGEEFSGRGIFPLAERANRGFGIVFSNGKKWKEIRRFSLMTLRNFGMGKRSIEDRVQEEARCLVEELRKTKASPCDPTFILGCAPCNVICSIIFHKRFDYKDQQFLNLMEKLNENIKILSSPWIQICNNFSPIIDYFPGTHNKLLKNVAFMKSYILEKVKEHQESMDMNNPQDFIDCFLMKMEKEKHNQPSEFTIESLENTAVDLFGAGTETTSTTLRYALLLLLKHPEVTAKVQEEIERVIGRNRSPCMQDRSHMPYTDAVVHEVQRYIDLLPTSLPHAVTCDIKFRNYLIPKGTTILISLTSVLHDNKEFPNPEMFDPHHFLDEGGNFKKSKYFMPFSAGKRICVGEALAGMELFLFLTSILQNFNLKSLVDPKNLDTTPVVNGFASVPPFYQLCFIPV
Chain of Cytochrome P450 2D6 (P10635 whole entry): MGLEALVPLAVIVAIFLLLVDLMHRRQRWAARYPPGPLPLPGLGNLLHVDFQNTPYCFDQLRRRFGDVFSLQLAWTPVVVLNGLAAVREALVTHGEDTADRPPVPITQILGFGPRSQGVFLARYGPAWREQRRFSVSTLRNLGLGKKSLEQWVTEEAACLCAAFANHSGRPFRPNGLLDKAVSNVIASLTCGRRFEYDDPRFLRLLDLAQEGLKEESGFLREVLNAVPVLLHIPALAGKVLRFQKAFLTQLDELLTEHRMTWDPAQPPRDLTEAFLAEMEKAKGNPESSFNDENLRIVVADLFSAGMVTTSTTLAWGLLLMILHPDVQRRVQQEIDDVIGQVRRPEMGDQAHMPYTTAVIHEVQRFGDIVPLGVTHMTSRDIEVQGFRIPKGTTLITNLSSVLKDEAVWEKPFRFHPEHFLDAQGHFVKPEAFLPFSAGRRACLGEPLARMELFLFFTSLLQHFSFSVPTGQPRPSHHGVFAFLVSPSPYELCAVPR

Drug metabolism (Cytochrome P450 2C9): metabolite_not_detected
Drug uptake (Serum [1]): 11.5 ngequiv/g
Drug metabolism (Cytochrome P450 2C8): metabolite_not_detected
Drug recovery (Mus musculus): 98%
Drug uptake (Serum [2]): 2.7 ngequiv/g
Tmax (Homo sapiens [3]): 6 h
Drug metabolism (Cytochrome P450 2D6): metabolite_not_detected
Drug uptake (Serum [4]): 12.1 ngequiv/g
Drug recovery (Rattus norvegicus): 98%
AUC (Serum [5]): 297 ngequiv.hr/g
AUClast (Homo sapiens [6]): 8298 ngequiv.hr/g
Cmax (Homo sapiens [7]): 74 ngequiv/g
Drug metabolism (Cytochrome P450 1A2): metabolite_not_detected
Drug metabolism (Cytochrome P450 2C19): metabolite_not_detected
Drug uptake (Serum [8]): 6.4 ngequiv/g
AUC (Homo sapiens [9]): 9434 ng/h/mL
Drug metabolism (Cytochrome P450 2E1): metabolite_not_detected
Drug metabolism (Cytochrome P450 1A1): metabolite_not_detected
beta t1/2 (Homo sapiens [10]): 190 h
Drug recovery (Canis familiaris): 99%
Drug uptake (Serum [11]): 8 ngequiv/g
Structure (SMILES): CCNC1(C(N)=O)CCN(c2ncnc3c2n[14c](-c2ccccc2Cl)n3-c2ccc(Cl)cc2)CC1.Cl

Drug uptake (Serum [12]): 7.2 ngequiv/g
Drug uptake (Serum [13]): 9.7 ngequiv/g
Drug uptake (Serum [14]): 4.5 ngequiv/g
AUC (Serum [15]): 309 ngequiv.hr/g
Drug uptake (Serum [16]): 12.6 ngequiv/g
Drug uptake (Serum [17]): 3.6 ngequiv/g
Drug metabolism (Cytochrome P450 3A4): 26.9%
Structure (SMILES): O=C1CCN(c2ncnc3c2nc(-c2ccccc2Cl)n3-c2ccc(Cl)cc2)CC1

Drug excretion (Homo sapiens [18]): 6.3%
Drug excretion [19]: 6.3%
Structure (SMILES): NC(=O)C1(NC2O[C@H](CO)[C@@H](O)[C@H]2O)CCN(c2ncnc3c2nc(-c2ccccc2Cl)n3-c2ccc(Cl)cc2)CC1 (stereo not given in full)

Drug uptake (Serum [12]): 31.8 ngequiv/g
Drug excretion (Homo sapiens [18]): 6.8%
Drug uptake (Serum [13]): 23.1 ngequiv/g
beta t1/2 (Homo sapiens [20]): 139 h
Drug uptake (Serum [14]): 28.4 ngequiv/g
AUC (Serum [15]): 1401 ngequiv.hr/g
Drug excretion [19]: 4.5%
Cmax (Homo sapiens [21]): 42 ng/mL
Drug uptake (Serum [16]): 57.3 ngequiv/g
AUC (Homo sapiens [22]): 3970 ng·h/mL
Drug uptake (Serum [17]): 38.1 ngequiv/g
Tmax (Homo sapiens [23]): 6.8 h
AUClast (Homo sapiens [24]): 3730 ng·h/mL
Drug metabolism (Cytochrome P450 3A4): 48.1%
Drug excretion [25]: 2.3%
Structure (SMILES): NC(=O)C1(N)CCN(c2ncnc3c2nc(-c2ccccc2Cl)n3-c2ccc(Cl)cc2)CC1
